In brackets after ≈: the same amount, converted by molar mass. Bounds are passed on as bounds.

One assay concerns E. coli. The experiment in a line: In vitro MIC in brain heart infusion (BHI) broth, E. coli. The assay is classed as cell-based. Conditions: Escherichia coli. From the text: (§1) Generally twelve 2 fold dilutions of the test compound are employed, with initial concentration of the test drug being in the range of 50 to 200 mcg./ml. The susceptibility (MIC) of the test organism is accepted as the lowest concentration of compound capable of producing complete inhibition of growth as judged by the naked eye.

The next assay relates to Past. mult. The experiment in a line: In vitro MIC in brain heart infusion (BHI) broth, Past. mult. Particulars: 48 h. The assay is classed as cell-based.
Excerpt: as §1

Another assay concerns Past. haem. Nature of the assay: In vitro MIC in brain heart infusion (BHI) broth, Past. haem. The assay is classed as cell-based.
Excerpt: as §1

Another assay deals with Lact. acidoph. Nature of the assay: In vitro MIC in brain heart infusion (BHI) broth, Lact. acidoph. The assay is classed as cell-based. Conditions: 24 h, strain 001, replicate Day 1.
Excerpt: as §1

The next assay relates to Acto. pyog. Nature of the assay: In vitro MIC in brain heart infusion (BHI) broth, Acto. pyog. The assay is classed as cell-based. Conditions: 24 h.
Excerpt: as §1

The test system of a further assay is Hemoph. pleur. The experiment in a line: In vitro MIC in brain heart infusion (BHI) broth, Hemoph. pleur. The assay is classed as cell-based. Conditions: 24 h.
Excerpt: as §1

In the next assay the test system is Past. haem. 010. The experiment in a line: Mouse protection test, i.p. infection with multilethal amounts of Past. haem. 010. The assay is classed as in vivo, mice. Particulars: subcutaneous, infected i.p. with multilethal amounts of Past. haem. 010. As to the method: Additionally, compound (I) is tested in vivo by the well-known mouse protection test, or by a microbiological (bioassay) determination of serum levels in a variety of mammals (e.g., mouse, rat, dog). For example, at subcutaneous doses of either 100 mg./kg. or 25 mg./kg., there was survival of 5/5 mice infected i.p. with multilethal amounts of Past. haem. 010.

Take `CC=CC=CC1OC(O)(C(CC)C(=O)NCC=CC=C(C)C(OC)C(C)C2OC(C=CC=CC=C(C)C(=O)c3c(O)cc[nH]c3=O)C(O)C2O)C(O)C(OC2OC(C)C(OC3OC(C)C(OC)C(O)C3OC)C(OC)C2O)C1(C)C` (stereo not shown) [N-Demethylefrotomycin, N-demethylefrotomycin]: the minimum inhibitory concentration (MIC) against E. coli (24 h, strain 124, replicate Day 1) was greater than 100 µg/mL; in the assay on E. coli (48 h, strain 124, replicate Day 2) it was greater than 100 µg/mL; against Past. mult, 12.5 µg/mL (≈ 11 µM); against Past. haem. (24 h) it was 12.5 µg/mL (≈ 11 µM); in the assay with Past. haem. (48 h), 12.5 µg/mL (≈ 11 µM); against Past. haem. (strain 046, replicate Day 2, BHI broth), 12.5 µg/mL (≈ 11 µM). Further, the MIC against Lact. acidoph. is 12.5 µg/mL (≈ 11 µM); in the assay on Acto. pyog. (strain 002, replicate Day 1) it was 12.5 µg/mL (≈ 11 µM); in the assay on Acto. pyog. (strain 008, replicate Day 1), 12.5 µg/mL (≈ 11 µM); against Hemoph. pleur. (strain 004, replicate Day 1) it was 12.5 µg/mL (≈ 11 µM); against Hemoph. pleur. (strain 005, replicate Day 1), 12.5 µg/mL (≈ 11 µM). Besides, the survival in the assay on Past. haem. 010 (25 mg./kg.) and with Past. haem. 010 (100 mg./kg.) was 5/5 each time.

For the origin of these results see US4937184A, “N-demethylefrotomycin” (Pfizer Inc., priority 1989, dated 1990).
